Key:
[1] = cited from earlier work
[2] = tested on: Nlrp1, Nlrp3, Asc, Casp1, Casp6, Casp11, Casp3; assay: inflammasome and caspase expression (PCR, Casp1 western blot); assay type: in vivo, mouse
Experimental: (§1) VX-765 (Adooq Bioscience, Irvine, CA, USA) was dissolved 5 mg • ml^−1 in 20% cremophor in dH2O[60] (Sigma-Aldrich, ON, Canada) and administered IPWT and J20 mice received three injections per week of either 50 mg • kg^−1 VX-765 or 20% cremophor vehicle for 4 weeks between 2 and 3 months of age. Mice were longitudinally followed starting 4 weeks after the last injection [4-week washout (WO)], then every other month at 12- and 20-week WO (6 and 8 months of age, respectively). Intermediate 8- and 16-week WO periods were also looked at with a smaller number of mice. After each WO period, animals were randomly chosen, independent of behavioural performance, for sacrifice and assigned to either histological or biochemical analysis (Fig. 2a).
Twenty to sixty micrograms of protein or 16 μl of precipitated protein from culture medium were separated on SDS-PAGE or 4–12% NuPAGE Bis-Tris gels (Invitrogen, Carlsbad, CA, USA) with MES buffer (Invitrogen) and transferred onto PVDF membranes (Bio-Rad) according to the manufacturer’s instructions. Membranes were probed with the following antibodies: 1:1000 mouse anti-Aβ1-16 (6E10) (BioLegend, CA, USA), 1:2000 rabbit anti-APP C-terminus (A8717) (Sigma-Aldrich), 1:1000 rabbit anti-neprilysin (Nep, Abcam, ON, Canada), 1:500 rabbit anti-insulin degrading enzyme (IDE, Abcam), 1:3000 rabbit anti-GFAP (Dako), 1:1000 rabbit anti-IL-1β (Abcam), 1:1000 rat anti-Caspase-1 (clone 4B4.2.1, kindly provided by Genentech, San Francisco, CA, USA) and 1:1000 mouse anti-β-actin (Sigma-Aldrich). […] Signals were visualized with the ImageQuant LAS 4000 imaging system and densitometric analyses were performed with Image Gauge analysis software 3.0 (Fujifilm USA, NY, USA). Protein extracts from three independent mice in each group were run together on each blot. Protein levels were normalized to β-actin and expressed as a percentage relative to the vehicle-treated WT group, except for APP which was compared to the vehicle-treated J20 group. Representative full blots are shown in the Source data file. […]

IL-1β = IL-1β and IL-18 levels (PCR, western blot, ELISA); assay type: in vivo, mouse
Experimental: as §1
Twenty to sixty micrograms of protein or 16 μl of precipitated protein from culture medium were separated on SDS-PAGE or 4–12% NuPAGE Bis-Tris gels (Invitrogen, Carlsbad, CA, USA) with MES buffer (Invitrogen) and transferred onto PVDF membranes (Bio-Rad) according to the manufacturer’s instructions. Membranes were probed with the following antibodies: 1:1000 mouse anti-Aβ1-16 (6E10) (BioLegend, CA, USA), 1:2000 rabbit anti-APP C-terminus (A8717) (Sigma-Aldrich), 1:1000 rabbit anti-neprilysin (Nep, Abcam, ON, Canada), 1:500 rabbit anti-insulin degrading enzyme (IDE, Abcam), 1:3000 rabbit anti-GFAP (Dako), 1:1000 rabbit anti-IL-1β (Abcam), 1:1000 rat anti-Caspase-1 (clone 4B4.2.1, kindly provided by Genentech, San Francisco, CA, USA) and 1:1000 mouse anti-β-actin (Sigma-Aldrich). […] Signals were visualized with the ImageQuant LAS 4000 imaging system and densitometric analyses were performed with Image Gauge analysis software 3.0 (Fujifilm USA, NY, USA). Protein extracts from three independent mice in each group were run together on each blot. Protein levels were normalized to β-actin and expressed as a percentage relative to the vehicle-treated WT group, except for APP which was compared to the vehicle-treated J20 group. Representative full blots are shown in the Source data file.
ELISA samples were prepared in RIPA described above. RIPA-insoluble pellets were further extracted in 70% formic acid (FA) in dH2O. FA was evaporated in a speed vacuum, and the resulting pellet was solubilized in 200 mM Tris-HCl, pH 7.5. IL-1β and Aβ levels (which include Aβ38, Aβ40 and Aβ42) were measured using Meso Scale Discovery ELISA kits (Rockville, MD, USA). Standards and samples were prepared according to the manufacturer’s protocols and run in duplicate.
Real-time PCR experiments were performed with SYBR Green Taq Mastermix (Quanta BioSciences, MD, USA) in a real-time cycler ABI 7500 Fast Block (Applied Biosystems, CA, USA). Primer sequences are described in the supplementary material. […]

J20 mice = assay: Barnes maze, spatial learning and memory; assay type: in vivo, mouse
Experimental: as §1
(§2) Open-field and novel object recognition (NOR) were measured at all WO periods. The Barnes maze was assessed at 12- and 20-week WO. Open field: Mice were placed in an open-field chamber, composed of a plexiglass box with no ceiling and white floor, and allowed to explore for 5 min. NOR: Mice were pre-exposed to two identical objects in the open-field chamber for 5 min. Two hours after pre-exposure, mice were placed back into the chamber and exposed to one familiar object and one novel object for 5 min (test phase). Mice were exposed to a specific object only once across multiple test sessions. Barnes maze: Learning acquisition (days 1–4)—each mouse was trained to find the target and enter the escape box within 180 s. Four trials per day, ~15 min apart, were performed for 4 consecutive days. Probe (day 5)—a single, 90 s trial was performed on each mouse to measure primary latency and number of errors to reach the blocked target. Target hole location was changed between the two separate test sessions. Behavioural scoring was blinded to mouse genotype and treatment.

WT mice = assay: Barnes maze, spatial learning and memory; assay type: in vivo, mouse
Experimental: as §1, §2

[3] = female, C57BL/6J, mouse, in vivo, ip, 50 mg/kg, 0.25 h
Experimental: Plasma, whole brain and CSF concentrations of VX-765 and its active metabolite, VRT-043198, were determined by LC-MS/MS at Paraza Pharma (Montreal, QC, Canada). Fourteen C57BL/6J female mice received a single IP dose of 50 mg · kg^−1 VX-765 and 2 mice per time point were euthanized at 0.25, 0.5, 1, 3, 6, 8 and 24 h post-injection. Mice were isoflurane anesthetized to collect CSF and perform a cardiac puncture followed by whole body perfusion with PBS. Plasma samples were extracted 1:1 in spiking solution and internal standard solution containing 0.1 μM glyburide in acetonitrile. Brain and CSF samples were extracted 1:1 in spiking solution and internal standard solution containing 0.2 μM labetalol in 50:50 methanol:acetonitrile. Samples were centrifuged at 4000 × g for 10 min at 4 °C, the plasma supernatant diluted 1:1 and the brain and CSF supernatant diluted 1:2 in H2O, and 5 μl was injected into a Quantis LC-MS/MS system for analysis.

[4] = J20, 12-week WO, probe 24 h after last training day

## CCO[C@@H]1OC(=O)C[C@@H]1NC(=O)[C@@H]1CCCN1C(=O)[C@@H](NC(=O)c1ccc(N)c(Cl)c1)C(C)(C)C [VX-765, (S)-1-((S)-2-{[1-(4-amino-3-chloro-phenyl)-methanoyl]-amino}-3,3-dimethyl-butanoyl)-pyrrolidine-2-carboxylic acid ((2R,3S)-2-ethoxy-5-oxo-tetrahydro-furan-3-yl)-amide]
[1]
  in vitro half-life (t1/2): ~ 157 h
[2]; J20 cortex, 20-week WO
  full-length Casp1 levels (western blot): reduced full-length Casp1 levels slightly compared to vehicle-treated J20 mice, but this did not reach statistical significance
[2]; hippocampus
  Casp1, Casp6, Casp11 and Casp3 hippocampal mRNA levels: no differences were observed
[2]; hippocampus, vehicle WT, vehicle J20, VX-765 J20
  Nlrp1, Nlrp3 and Asc hippocampal mRNA levels: did not differ between the three treatment groups at any of the WO periods
IL-1β; J20 cortex, 20-week WO
  active IL-1β levels (western blot): normalized with VX-765 treatment at 20-week WO
IL-1β; J20 hippocampus, 16-week WO
  Il-1β mRNA: normalized with VX-765 treatment at 16-week WO
IL-1β; cortex, any WO
  cortical IL-1β levels (ELISA): did not differ between groups at any WO
IL-1β; hippocampus, 4-, 12-, or 20-week WO
  total protein IL-1β levels (ELISA): did not differ between treatment groups
J20 mice; 12-week WO
  Barnes maze probe preference towards the target area: All groups, except the vehicle-treated J20 group, showed a preference towards the target area
J20 mice; 12-week WO, all groups
  Barnes maze training primary latency: did not differ between groups
J20 mice; J20, 12-week WO, 50 mg/kg IP 3x/week for 1 month
  Barnes maze learning acquisition primary errors: prevented this learning deficit in J20 mice and reduced the number of errors committed to near WT levels
J20 mice; [4]
  Barnes maze probe primary errors: VX-765 treatment prevented this deficit
  Barnes maze probe primary latency: did not differ between vehicle- or VX-765-treated J20 and vehicle-treated WT groups
J20 mice; J20, 20-week WO
  Barnes maze learning deficits: vehicle-, but not VX-765-treated, J20 mice exhibited learning deficits
  Barnes maze probe primary latency and primary errors: these deficits were prevented with VX-765 treatment
WT mice; 12-week WO, vs vehicle-treated WT
  Barnes maze probe primary latency and primary errors: decreased primary latency and primary errors compared to vehicle-treated WT mice
WT mice; 20-week WO
  Barnes maze probe primary latency and primary errors: This effect was attenuated at 20-week WO
[3]
  CSF concentration relative to respective in vitro Casp1 IC50: 100 fold
  brain concentration relative to respective in vitro Casp1 IC50: 50 fold
  plasma concentration relative to respective in vitro Casp1 IC50: 100 fold

— PMC7486940, “Pre-symptomatic Caspase-1 inhibitor delays cognitive decline in a mouse model of Alzheimer disease and aging” (Nature Communications, 2020)
